Reference: article PMC7730549, “Design, Synthesis and Evaluation of New Bioactive Oxadiazole Derivatives as Anticancer Agents Targeting Bcl-2” (International Journal of Molecular Sciences, 2020)

What was measured:
HeLa (cervical) cells = assay: MTT anti-proliferative assay, HeLa; format: cell-based, human; details: 72 h incubation, Bcl-2 expressing, mean of three independent experiments ±SEM
Experimental: (§1) Evaluation of anti-proliferative activity for the new 2-(1H-indol-3-yl)-5-substituted-1,3,4-oxadiazoles (4a–m) was carried out in Bcl-2-expressing human metastatic breast (MDA-MB-231) and cervical (HeLa) cancer cell lines, using the MTT endpoint assay, following 72 h incubation of test compound, according to previously established protocols. Further analysis within the non-adherent leukemic cell lines KG1a (acute myelogenous leukemia, Bcl-2 +ve) and Jurkat (T-cell leukemia, Bcl-2 −ve,) was carried out by using the CellTiter-Blue® assay according to published precedent.
(§2) Human breast cancer (MDA-MB-231) and cervical cancer (HeLa) cells, obtained from the ATCC (Manassas, VA, USA), were cultured and maintained as previously described. For each experiment, 3000 cells in 0.2 mL of medium were seeded into each well of a clear flat-bottomed 96-well plate and allowed to adhere for 24 h. The cells were then incubated with the test compound (from 10 mM stock in DMSO), over a 10-fold dilution series, with concentrations ranging from 0.00001 to 100 μM and each diluent being performed in triplicate. Cells were incubated with the test compound for 72 h, followed by treatment with 3-[4,5-dimethylthiazol-2-yl]-2,5-diphenyl tetrazolium bromide (MTT) solution and reading of absorbance (automated microplate) according to our previous protocol. Mean IC50 values were obtained by using GraphPad Prism 5 software (San Diego, CA, USA). For each concentration, three independent repeat experiments were carried out to establish reproducibility.

[1] = test system: MDA-MB-231 (metastatic breast) cells; assay: MTT anti-proliferative assay, MDA-MB-231; format: cell-based, human; details: Bcl-2 expressing, mean of three independent experiments ±SEM
Experimental: as §1, §2

His-tagged Bcl-2 protein = His-tagged Bcl-2 protein (Homo sapiens, UniProt P10415); assay: Competitive Bcl-2 ELISA binding assay (Bim peptide / His-tagged Bcl-2); details: for IC50: competition with biotinylated Bim peptide for His-tagged Bcl-2, mean ± SEM of three independent experiments; for Bcl-2 binding activity in the ELISA assay: competitive ELISA, Bim peptide
Chain of His-tagged Bcl-2 protein (P10415 whole entry, the tested form may be a part): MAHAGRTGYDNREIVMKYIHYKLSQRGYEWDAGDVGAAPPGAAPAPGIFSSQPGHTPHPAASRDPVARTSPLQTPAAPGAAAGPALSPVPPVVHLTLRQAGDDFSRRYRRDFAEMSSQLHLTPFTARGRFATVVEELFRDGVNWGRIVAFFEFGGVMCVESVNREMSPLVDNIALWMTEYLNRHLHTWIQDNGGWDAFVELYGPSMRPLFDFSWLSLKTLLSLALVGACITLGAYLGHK
Experimental: Compounds were evaluated according to their ability to compete with the pro-apoptotic BH3 domain Bim peptide for binding to His-tagged Bcl-2 protein, with a readout from anti-His secondary antibody conjugated to HRP (horseradish peroxidase) enzyme that produces a colorimetric readout in the presence of o-phenylenediamine (competitive ELISA assay).
The ELISA assay to determine the ability of test compounds (10-fold dilution series) to compete with the interaction between biotinylated Bim peptide and His-tagged Bcl-2 protein was carried out according to our previously published protocol. The addition of anti-His antibody containing horseradish peroxidase enzyme, followed by the addition of o-phenylenediamine and hydrogen peroxide, allowed for the determination of optical density, using a plate reader (450 nm). The experiments were carried out on three separate occasions, including both negative and positive controls. A plot of log μM concentration for each inhibitor against the percentage reduction in affinity for the Bim peptide was created, using non-linear regression curve analysis (GraphPad Prism 5, San Diego, CA, USA) and the software used to generate the IC50 value for the Bcl-2 inhibitor.

KG1a (AML) cells = assay: CellTiter-Blue cell viability assay, KG1a; format: cell-based, human; details: CellTitre-Blue assay, 24 h incubation, Bcl-2 +ve, mean of three independent experiments ±SEM
Experimental: as §1
(§3) Human acute myeloid leukemia KG1a and acute T-cell lymphocytic Jurkat cells were cultured and maintained as previously described. For each experiment 15,000 cells in 0.1 mL of medium were seeded into each well of a solid-black fluorescence 96-well plate and incubated for 24 h. The cells were then incubated with test compound (from 10 mM stock in DMSO), over a 10-fold dilution series, with concentrations ranging from 0.00001 to 100 μM and each diluent being performed in triplicate. Cells were incubated with test compound for 24 h, followed by treatment with CellTiter-Blue® solution and reading of fluorescence according to our previous protocol. Mean IC50 values were obtained by using GraphPad Prism 5 software (San Diego, CA, USA). For each concentration, three independent repeat experiments were carried out, to establish reproducibility.

[2] = test system: Jurkat (T-cell leukemia) cells; assay: CellTiter-Blue cell viability assay, Jurkat; format: cell-based, human; details: for IC50: CellTitre-Blue assay, 24 h incubation, Bcl-2 −ve, mean of three independent experiments ±SEM
Experimental: as §1, §3

[3] = test system: Bcl-2 expressing cell lines (MDA-MB-231, HeLa and KG1a); assay: Anti-proliferative activity across Bcl-2 expressing cell lines (MDA-MB-231, HeLa, KG1a); format: cell-based; details: Homo sapiens; MDA-MB-231, HeLa and KG1a taken together; read-out: IC50 values against Bcl-2 expressing cell lines
Experimental: as §1
Human breast cancer (MDA-MB-231) and cervical cancer (HeLa) cells, obtained from the ATCC (Manassas, VA, USA), were cultured and maintained as previously described. […] Cells were incubated with the test compound for 72 h, followed by treatment with 3-[4,5-dimethylthiazol-2-yl]-2,5-diphenyl tetrazolium bromide (MTT) solution and reading of absorbance (automated microplate) according to our previous protocol. […]
Human acute myeloid leukemia KG1a and acute T-cell lymphocytic Jurkat cells were cultured and maintained as previously described. For each experiment 15,000 cells in 0.1 mL of medium were seeded into each well of a solid-black fluorescence 96-well plate and incubated for 24 h. […]

[4] = Homo sapiens, MDA-MB-231, 72 h incubation

IC50 (HeLa (cervical) cells) [µM]	IC50 ([1]; 72 h incubation) [µM]	IC50 (His-tagged Bcl-2 protein) [µM]	IC50 [2] [µM]	IC50 (HeLa (cervical) cells; Homo sapiens, HeLa) [µM]	IC50 [1, 4] [µM]	melting point [°C]	IC50 ([2]; Homo sapiens, Jurkat) [µM]	Bcl-2 binding activity in the ELISA assay (His-tagged Bcl-2 protein)	IC50 [3] [µM]	binding potency relative to positive control gossypol (His-tagged Bcl-2 protein; Bcl-2 ELISA binding affinity assay)	Compound	IC50 (KG1a (AML) cells) [µM]	IC50 (KG1a (AML) cells; Homo sapiens, KG-1a) [µM]	inhibitory effect in the Bcl-2 negative cell line ([2]; Jurkat, Bcl-2 negative)
1.19 ± 0.4	1.79 ± 0.07	0.84 ± 0.05	57.5 ± 0.58								2-(1H-Indol-3-yl)-5-(5-methoxy-1H-indol-2-yl)-1,3,4-oxadiazole [Compound 4m]	1.87 ± 0.14		
		21 ± 1.09		1.22 ± 0.9	1.19 ± 0.1	221 to 222	12.2 ± 1.13	only moderate Bcl-2 binding activity			COc1cc(-c2nnc(-c3c[nH]c4ccccc34)o2)cc(OC)c1OC [Compound 4i, 2-(1H-Indol-3-yl)-5-(3,4,5-trimethoxyphenyl)-1,3,4-oxadiazole]		0.975 ± 0.02	
		0.33 ± 0.05		0.88 ± 0.16	0.52 ± 0.15	224 to 226	> 100		0.52 to 0.88	two-fold more potent	FC(F)(F)c1ccc(-c2nnc(-c3c[nH]c4ccccc34)o2)cc1 [Compound 4j, 2-(1H-Indol-3-yl)-5-(4-trifluoromethylphenyl)-1,3,4-oxadiazole]		0.73 ± 0.09	no inhibitory effects
		0.43 ± 0.05		1.28 ± 0.35	0.92 ± 0.19	198 to 200	> 100				Cc1ccc(-c2nnc(-c3c[nH]c4ccccc34)o2)cc1 [Compound 4k, 2-(1H-Indol-3-yl)-5-(4-methylphenyl)-1,3,4-oxadiazole]		1.47 ± 0.13	
				1.52 ± 0.03	2.97 ± 0.06	240 to 242	61.4 ± 1.4				c1ccc2c(-c3nnc(-c4ccc(N5CCCCC5)nc4)o3)c[nH]c2c1 [Compound 4l, 2-(1H-Indol-3-yl)-5-(6-(piperidin-1-yl)-pyridin-3-yl)-1,3,4-oxadiazole]		4.5 ± 0.31	

Second part, the compound before the results:

Compound	IC50 (HeLa (cervical) cells) [µM]	IC50 ([1]; 72 h incubation) [µM]	IC50 (His-tagged Bcl-2 protein) [µM]	IC50 [2] [µM]	IC50 (HeLa (cervical) cells; Homo sapiens, HeLa) [µM]	IC50 [1, 4] [µM]	melting point [°C]	IC50 ([2]; Homo sapiens, Jurkat) [µM]	Bcl-2 binding activity in the ELISA assay (His-tagged Bcl-2 protein)	IC50 [3] [µM]	binding potency relative to positive control gossypol (His-tagged Bcl-2 protein; Bcl-2 ELISA binding affinity assay)	IC50 (KG1a (AML) cells) [µM]	IC50 (KG1a (AML) cells; Homo sapiens, KG-1a) [µM]	inhibitory effect in the Bcl-2 negative cell line ([2]; Jurkat, Bcl-2 negative)
Fc1ccc(OCc2nnc(-c3c[nH]c4ccccc34)o2)cc1 [Compound 4a, 2-(1H-Indol-3-yl)-5-(4-fluorophenoxymethyl)-1,3,4-oxadiazole]					12.9 ± 1.33	36.1 ± 3.4	210 to 212	> 100					> 100	
Cc1ccc(OCc2nnc(-c3c[nH]c4ccccc34)o2)cc1 [Compound 4b, 2-(1H-Indol-3-yl)-5-(4-methylphenoxymethyl)-1,3,4-oxadiazole]			> 100		13.3 ± 0.32	31.5 ± 4.8	201 to 203	> 100	inactive				> 100	
CC(C)(C)c1ccc(OCc2nnc(-c3c[nH]c4ccccc34)o2)cc1 [Compound 4c, 2-(1H-Indol-3-yl)-5-(4-tert-butylphenoxymethyl)-1,3,4-oxadiazole]			1.17 ± 0.13		0.9 ± 0.03	3.5 ± 0.16	218 to 220	> 100					3.45 ± 0.8	
c1ccc(OCc2nnc(-c3c[nH]c4ccccc34)o2)cc1 [Compound 4d, 2-(1H-Indol-3-yl)-5-(phenoxymethyl)-1,3,4-oxadiazole]			1.41 ± 0.01		0.57 ± 0.04	1.63 ± 0.08	195 to 197	> 100					2.56 ± 0.07	
COc1cccc(Cc2nnc(-c3c[nH]c4ccccc34)o2)c1 [Compound 4e, 2-(1H-Indol-3-yl)-5-(3-methoxybenzyl)-1,3,4-oxadiazole]			2.72 ± 0.2		3.14 ± 0.14	6.28 ± 0.2	208 to 210	> 100					3.66 ± 0.15	
c1ccc(Cc2nnc(-c3c[nH]c4ccccc34)o2)cc1 [Compound 4f, 2-(1H-Indol-3-yl)-5-benzyl-1,3,4-oxadiazole]					> 100	> 100	187 to 189	> 100					> 100	
O=[N+]([O-])c1ccc(-c2nnc(-c3c[nH]c4ccccc34)o2)cc1 [Compound 4g, 2-(1H-Indol-3-yl)-5-(4-nitrophenyl)-1,3,4-oxadiazole]					1.6 ± 0.12	6.95 ± 0.5	215 to 217	> 100					> 100	
COc1ccc(-c2nnc(-c3c[nH]c4ccccc34)o2)cc1 [Compound 4h, 2-(1H-Indol-3-yl)-5-(4-methoxyphenyl)-1,3,4-oxadiazole]					0.92 ± 0.08	6.02 ± 0.12	210 to 212	60.59 ± 0.12					2.21 ± 0.1	
